Data taken from paper PMC3214078 (PLoS ONE, 2011).
Changes are numbered by the printed parent chain. Where no end group is shown, it is not given here.

Experiments:
Assay type in all cases: binding
[1] = molecular target: T1, huUHRF1-PHD296–367 D337A (Homo sapiens, UniProt Q96T88, D337A); assay: ITC, D337A mutant; conditions: 20°C, 20 mM Tris pH 7, 150 mM NaCl, 0.5 mM TCEP, 25 µM ZnCl2, at least in duplicates
T1 construct: Characterization of key residues for the recognition of the histone H3 tail by huUHRF1-PHD296–367; (His)6-GST (N, cleaved yes); made in house; host or cells: Escherichia coli Rosetta 2
T1 sequence (Q96T88 296-367 D337A): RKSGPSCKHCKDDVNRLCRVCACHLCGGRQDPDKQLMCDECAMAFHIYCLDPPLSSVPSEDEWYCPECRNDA
Description: (§1) Measurements were carried out at 20°C on an ITC200 Microcal calorimeter (MicroCal). Histone peptides (1–12Y, 1.5–2 mM) were injected to a sample of either wild-type or mutant huUHRF1-PHD (0.12–0.18 mM) in a reaction buffer containing 20 mM Tris pH 7, 150 mM NaCl, 0.5 mM TCEP, 25 µM ZnCl2 and 0.1 mM PMSF. A typical titration consisted of 19 injections of 2 µl of peptide into 203 µl of the protein solution at time intervals of 150–300 s. Control experiments were performed under identical conditions to determine the dilution heat of the titrant peptide into buffer. Data were analyzed using the software ORIGIN 5.0 (OriginLab Corporation) and all the measurements were performed, at least, in duplicates.

[2] = molecular target: T2, huUHRF1-PHD296–367 D334A (Homo sapiens, UniProt Q96T88, D334A); assay: ITC, D334A mutant; conditions: 20°C, 20 mM Tris pH 7, 150 mM NaCl, 0.5 mM TCEP, 25 µM ZnCl2, at least in duplicates
T2 construct: Characterization of key residues for the recognition of the histone H3 tail by huUHRF1-PHD296–367; (His)6-GST (N, cleaved yes); made in house; host or cells: Escherichia coli Rosetta 2
T2 sequence (Q96T88 296-367 D334A): T1 sequence (Q96T88 296-367 D337A) with D39A, A42D
Description: as §1

[3] = molecular target: T3, huUHRF1-PHD296–367 (Homo sapiens, UniProt Q96T88); assay: ITC, wild-type huUHRF1-PHD296–367 with histone H3 peptides; conditions: 20°C, 20 mM Tris pH 7, 150 mM NaCl, 0.5 mM TCEP, 25 µM ZnCl2, 0.1 mM PMSF, peptide 1.5–2 mM into protein 0.12–0.18 mM, at least in duplicates
T3 construct: (His)6-GST (N, cleaved yes); made in house; host or cells: Escherichia coli Rosetta 2
T3 sequence (Q96T88 296-367): T1 sequence (Q96T88 296-367 D337A) with A42D
Description: as §1, with “Histone peptides (1–12Y, 1.5–2 mM) were injected to a sample of either wild-type or mutant huUHRF1-PHD (0.12–0.18 mM) in a reaction buffer containing 20 mM Tris pH 7, 150 mM NaCl, 0.5 mM TCEP, 25 µM ZnCl2 and 0.1 mM PMSF.” left out

C[C@H](N)C(=O)N[C@@H](CCCNC(=N)N)C(=O)N[C@H](C(=O)N[C@@H](CCCCN)C(=O)N[C@@H](CCC(N)=O)C(=O)N[C@H](C(=O)N[C@@H](C)C(=O)N[C@@H](CCCNC(=N)N)C(=O)N[C@@H](CCCCN)C(=O)N[C@@H](CO)C(=O)N[C@H](C(=O)NCC(=O)N[C@@H](Cc1ccc(O)cc1)C(=O)O)[C@@H](C)O)[C@@H](C)O)[C@@H](C)O [H3 (1-12Y)] gave a Kd [1] of 68 ± 8 µM and a Kd [2] of over 500 µM.

C[C@H](N)C(=O)N[C@@H](CCCNC(=N)N)C(=O)N[C@H](C(=O)N[C@@H](CCCCN)C(=O)N[C@@H](CCC(N)=O)C(=O)N[C@H](C(=O)N[C@@H](C)C(=O)N[C@@H](CCCNC(=N)N)C(=O)N[C@@H](CCCCN)C(=O)N[C@@H](CO)C(=O)N[C@H](C(=O)NCC(=O)N[C@@H](Cc1ccc(O)cc1)C(=O)O)[C@@H](C)O)[C@@H](C)O)[C@@H](C)O [unmodified H3] gave a Kd [3] of 7.9 µM.

Molecule ARTAQTARKSTGY [H3K4A (1-12Y)] has a Kd [3] of 16.6 ± 0.9 µM.
